# Assay results: US10051861B2, “N-arylamidine-substituted trifluoroethyl sulfide derivatives as acaricides and insecticides” (BAYER CROPSCIENCE AG, priority 2011, dated 2018)
# Like-named read-outs stand apart in the source and are kept apart here. Marks after values point to notes of the source that are not given here.
# Tests used:
# [1] = logP by HPLC on reversed-phase columns (C 18), EEC Directive 79/831 Annex V.A8; assay type: physicochemical
# Procedure: Calibration is carried out using unbranched alkan-2-ones (having from 3 to 16 carbon atoms) with known log P values (the log P values are determined by the retention times using linear interpolation between two successive alkanones).
# [2] = tested on: greenhouse red spider mite (Tetranychus urticae); test: Tetranychus urticae spray test, OP-resistant (TETRUR), bean leaf disks; assay type: in vivo; conditions: for pest or weed control at 500 g/ha: Tetranychus urticae, foliar, 144 h, read-out: efficacy (spider mites killed)
# Procedure: After 6 days, the effect in % is determined.
# [3] = tested on: larvae of the mustard beetle (Phaedon cochleariae); test: Phaedon cochleariae spray test (PHAECO); conditions: Phaedon cochleariae, 168 h, read-out: effect (beetle larvae killed)
# [4] = reversed-phase C18 HPLC column, pH 2.7, [a] LC-MS, acidic range, pH 2.7, 0.1% aqueous formic acid/acetonitrile, read-out: logP(HCOOH)
# [5] = application rate 500 g/ha, after 6 days
# [6] = reversed-phase C18 HPLC column, pH 7.8, [b] LC-MS, neutral range, pH 7.8, 0.001 molar aqueous ammonium bicarbonate/acetonitrile, read-out: logP(neutral)
SMILES,"chromatographic logP [1, 4]","pest or weed control at 500 g/ha [2, 5] [%]",pest or weed control at 500 g/ha [3] [%],"chromatographic logP [1, 6]",other results
"Cc1cc(F)c(/N=C2/NCCCS2)cc1SCC(F)(F)F [Ia-278, 2-fluoro-4-methyl-N-[1,3-thiazinan-2-ylidene]-5-[(2,2,2-trifluoroethyl)sulfanyl]anilinium chloride]",,,,,"chromatographic logP ([1]; [a] LC-MS, acidic range, pH 2.7, 0.1% aqueous formic acid/acetonitrile, read-out: logP(HCOOH)): 1.34; pest or weed control at 500 g/ha [2]: 90%"
Cc1cc(F)c(/N=C(/NCC2CC2)C(F)(F)F)cc1SCC(F)(F)F [Ia-41],4.62,100,,,
Cc1cc(F)c(/N=C(\N)C2(Cl)CC2F)cc1SCC(F)(F)F (stereo not shown) [Ia-29],,100,100,,
C#CCN/C(=N\c1cc([S+]([O-])CC(F)(F)F)c(C)cc1F)C1CC1 (stereo not shown) [Ib-137],,100,83,,
Cc1cc(F)c(N=C(NS(C)(=O)=O)C(F)(F)F)cc1SCC(F)(F)F [Ia-11],,,,,"logP(HCOOH) ([1]; pH 2.7): 3.05^[a]; efficacy (spider mites killed) [2, 5]: 100%"
CN(C)/C(=N/c1cc(SCC(F)(F)F)c(Cl)cc1F)C(F)(F)F [Ia-35],,100,100,,
"Cc1cc(F)c(/N=C2\CCCN2c2ccccc2)cc1SCC(F)(F)F [Ia-78, 2-Fluoro-4-methyl-N-[(2E)-1-phenylpyrrolidin-2-ylidene]-5-[(2,2,2-trifluoroethyl)sulfanyl]aniline]",,100,100,,
N/C(=N/c1cc([S+]([O-])CC(F)(F)F)c(Cl)cc1Br)C(F)(F)F (stereo not shown) [Ib-57],,100,100,,
N/C(=N\c1cc(SCC(F)(F)F)c(Cl)cc1Cl)c1ccccn1 [Ia-134],,100,83,,
N/C(=N\c1cc(SCC(F)(F)F)c(Cl)cc1Cl)C(Cl)(Cl)Cl [Ia-210],,,83,,pest or weed control at 500 g/ha [2]: 100%
"Cc1cc(F)c(/N=C2\SCC(=O)N2CC(F)(F)F)cc1[S+]([O-])CC(F)(F)F (stereo not shown) [Ib-71, 2-({2-Fluoro-4-methyl-5-[(2,2,2-trifluoroethyl)sulfinyl]phenyl}imino)-3-(2,2,2-trifluoroethyl)-1,3-thiazolidin-4-one]",2.93,100,,2.87,
CN(C)/C(CC(F)(F)F)=N\c1cc(SCC(F)(F)F)c(Cl)cc1Cl [Ia-202],,100,100,,
CN/C(=N/c1cc([S+]([O-])CC(F)(F)F)c(Cl)cc1Cl)C(F)(F)F (stereo not shown) [Ib-21],3.32,100,,3.32,
CN/C(=N\c1cc([S+]([O-])CC(F)(F)F)c(C)cc1Cl)C(F)(F)F (stereo not shown) [Ib-56],,100,100,,
Cc1cc(F)c(/N=C2\CCCN2c2ccc(C(F)(F)F)cc2)cc1[S+]([O-])CC(F)(F)F (stereo not shown) [Ib-30],,100,83,,
"Cc1cc(F)c(/N=C(\N)c2cnccn2)cc1SCC(F)(F)F [Ia-117, N′-{2-Fluoro-4-methyl-5-[(2,2,2-trifluoroethyl)sulfanyl]phenyl}pyrazine-2-carboximidamide]",1.24,90,,,
CN/C(=N/c1ccc(Cl)c([S+]([O-])CC(F)(F)F)c1)C(F)(F)F (stereo not shown) [Ib-110],,100,100,,
Cc1cc(F)c(/N=C(/NCc2ccc(C(F)(F)F)cc2)C(F)(F)F)cc1[S+]([O-])CC(F)(F)F (stereo not shown) [Ib-101],,90,100,,
COc1ccc(N/C(=N/c2cc(SCC(F)(F)F)c(C)cc2F)C(F)(F)F)cc1 [Ia-129],4.2,100,,4.2,
Cc1cc(F)c(/N=C(/NCc2ccc(C(F)(F)F)cc2)C(F)(F)F)cc1SCC(F)(F)F [Ia-89],5.15,100,,5.15,
Cc1cc(F)c(/N=C(/Nc2ccccc2)C(F)(F)F)cc1SCC(F)(F)F [Ia-96],4.37,100,,4.37,
CN/C(=N/c1cc([S+]([O-])CC(F)(F)F)c(Br)cc1F)C(F)(F)F (stereo not shown) [Ib-78],,100,100,,
Cc1cc(Cl)c(/N=C(\N)C(F)(F)C(F)(F)F)cc1SCC(F)(F)F [Ia-38],,100,100,,

SMILES,"chromatographic logP [1, 4]","pest or weed control at 500 g/ha [2, 5] [%]",pest or weed control at 500 g/ha [3] [%],"chromatographic logP [1, 6]",other results
N/C(=N\c1cc(SCC(F)(F)F)c(Cl)cc1Cl)c1ccc(Cl)nc1 [Ia-135],,100,100,,
Cc1cc(Cl)c(/N=C(\N)C2(Cl)CC2)cc1[S+]([O-])CC(F)(F)F (stereo not shown) [Ib-27],,100,100,,
"Cc1cc(F)c(/N=C(\NCC(F)(F)F)C2CC2)cc1SCC(F)(F)F [Ia-145, N′-{2-fluoro-4-methyl-5-[(2,2,2-trifluoroethyl)sulfanyl]phenyl}-N-(2,2,2-trifluoroethyl)cyclopropanecarboximidamide]",1.99,100,,4.12,
FC(F)(F)CSc1cc(/N=C(\NC2CC2)c2ccc(Cl)nc2)c(Cl)cc1Cl [Ia-229],,90,100,,
Cc1cc(F)c(/N=C(\N)C2CC2)cc1SCC(F)(F)F [Ia-92],,90,83,,
Cc1cc(F)c(/N=C(\N)[C@H]2CC2(C)C)cc1SCC(F)(F)F [Ia-79],,100,100,,
N/C(=N\c1cc(SCC(F)(F)F)c(Cl)cc1Cl)C1CCC1 [Ia-209],,100,100,,
N/C(=N\c1cc(SCC(F)(F)F)c(Cl)cc1Cl)c1ccncn1 [Ia-130],,100,83,,
Cc1ccc(/N=C(/N)C(F)(F)F)cc1[S+]([O-])CC(F)(F)F (stereo not shown) [Ib-111],,90,100,,
[O-][S+](CC(F)(F)F)c1cc(/N=C(\NCC(F)(F)F)C2CC2)c(Cl)cc1Cl (stereo not shown) [Ib-83],,100,100,,
N/C(=N/c1cc(SCC(F)(F)F)c(Br)cc1Br)C(F)(F)F [Ia-28],,100,100,,
Cc1cc(F)c(/N=C(/Nc2ccccc2)C(F)(F)F)cc1[S+]([O-])CC(F)(F)F (stereo not shown) [Ib-49],3.22,100,,3.12,
Cc1cc(F)c(/N=C(\NCC2CCC(C(F)(F)F)CC2)C2CC2)cc1SCC(F)(F)F (stereo not shown) [Ia-251],2.23,90,,,
CN/C(=N/c1cc(SCC(F)(F)F)c(C)cc1F)c1ccc(OC)cc1 [Ia-165],1.68,100,,3.49,
"Cc1cc(F)c(SSc2cc(NC(=O)C(F)(F)F)c(C)cc2F)cc1NC(=O)C(F)(F)F [IV-2, N,N′-[Disulfanediylbis(4-fluoro-6-methylbenzene-3,1-diyl)]bis(2,2,2-trifluoroacetamide)]",4,,,3.92,
"Cc1cc(F)c(/N=C(\N)c2cnccn2)cc1[S+]([O-])CC(F)(F)F (stereo not shown) [Ib-62, N′-{2-Fluoro-4-methyl-5-[(2,2,2-trifluoroethyl)sulfinyl]phenyl}pyrazine-2-carboximidamide]",0.84,100,,1.77,
COc1ccc(N/C(=N/c2cc([S+]([O-])CC(F)(F)F)c(C)cc2F)C(F)(F)F)cc1 (stereo not shown) [Ib-86],3.04,100,,3.05,
"O=C(Nc1cc(SCC(F)(F)F)c(Br)cc1Br)C(F)(F)F [III-6, N-{2,4-Dibromo-5-[(2,2,2-trifluoroethyl)sulfanyl]phenyl}-2,2,2-trifluoroacetamide]",3.81,,,,
"Cc1cc(F)c(/N=C2\SCC(=O)N2CC(F)(F)F)cc1SCC(F)(F)F [Ia-175, 2-({2-Fluoro-4-methyl-5-[(2,2,2-trifluoroethyl)sulfanyl]phenyl}imino)-3-(2,2,2-trifluoroethyl)-1,3-thiazolidin-4-one]",4.09,90,,3.99,
"O=C(Nc1cc(SCC(F)(F)F)c(Br)cc1Cl)C(F)(F)F [III-5, N-{4-Bromo-2-chloro-5-[(2,2,2-trifluoroethyl)sulfanyl]phenyl}-2,2,2-trifluoroacetamide]",3.78,,,,
"Cc1cc(F)c(/N=C(\c2ccco2)N(C)C)cc1SCC(F)(F)F [Ia-166, N′-{2-Fluoro-4-methyl-5-[(2,2,2-trifluoroethyl)sulfanyl]phenyl}-N,N-dimethylfuran-2-carboximidamide]",1.57,100,,3.94,
"CN/C(=N/c1cc(SCC(F)(F)F)c(C)cc1F)c1ccc(C(F)(F)F)cc1 [Ia-250, N′-{2-Fluoro-4-methyl-5-[(2,2,2-trifluoroethyl)sulfanyl]phenyl}-N-methyl-4-(trifluoromethyl)benzenecarboximidamide]",1.96,90,,4.08,
Cc1cc(F)c(NC(=S)NCC(F)(F)F)cc1[S+]([O-])CC(F)(F)F (stereo not shown),,,,,"logP(HCOOH) ([1]; [a] LC-MS, acidic range, pH 2.7, 0.1% aqueous formic acid/acetonitrile): 2.34; logP(neutral) ([1]; [b] LC-MS, neutral range, pH 7.8, 0.001 molar aqueous ammonium bicarbonate/acetonitrile): 2.30"
